Experiments:
[1] = system: monosynaptic spinal cord reflex; test: Monosynaptic response in the isolated spinal cord of rat pups (rat model of RLS); details: for inhibition of the monosynaptic reflex: reference agonists applied to isolated rat spinal cord
Description: RLS is believed to reflect an abnormal sensitivity of spinal stretch reflexes. These reflexes are modulated in an inhibitory fashion by dopamine released in the dorsal horn from a descending dopaminergic projection arising from A11 dopamine cells in the hypothalamus.
Electrophysiological responses i.e. motor action potentials recorded on the ventral root of isolated spinal cord from rat pups following stimulation of the dorsal root were analyzed.

[2] = biological target: human dopamine D3 receptor (Homo sapiens, UniProt P35462); test: Mitogenesis assay of D3-receptor activation ([3H]-thymidine incorporation, CHO cells); type: cell-based; details: for agonist behaviour (partial / full): human D3 receptor
Chain of human dopamine D3 receptor (P35462 whole entry): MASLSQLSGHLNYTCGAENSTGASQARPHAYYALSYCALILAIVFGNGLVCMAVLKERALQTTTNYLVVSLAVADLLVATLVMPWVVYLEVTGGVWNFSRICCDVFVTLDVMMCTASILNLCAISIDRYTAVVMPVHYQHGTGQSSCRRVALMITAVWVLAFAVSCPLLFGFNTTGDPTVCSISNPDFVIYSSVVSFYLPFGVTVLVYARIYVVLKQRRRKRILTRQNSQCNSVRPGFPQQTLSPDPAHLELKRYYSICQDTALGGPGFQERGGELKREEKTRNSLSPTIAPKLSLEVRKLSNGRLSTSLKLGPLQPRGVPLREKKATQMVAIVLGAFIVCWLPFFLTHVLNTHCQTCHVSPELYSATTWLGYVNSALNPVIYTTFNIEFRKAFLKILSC
Description: Mitogenesis Assay of D3-Receptor Activation
Chinese hamster ovary (CHO) cells stably expressing the human dopamine D3 receptor were plated overnight in 96-well plates. Cells were then washed with serum-free medium, and incubated 20 h with various concentrations of ligands. Tritiated thymidine was added for a 4 hour-pulse. Then, the cells were detached with trypsin/EDTA, transferred in GF/C multiscreen microplates, rinsed with ice-cold PBS and ethanol and dried. [^3H]-Thymidine incorporation was measured by liquid scintillation in a MicroBeta counter.
Results are expressed as percentage of the maximal [^3H]-thymidine incorporation yielded with the full agonist quinelorane.

[3] = biological target: T1, human dopamine D2 short isoform (Homo sapiens, UniProt P14416); test: Calcium fluxes assay of D2-receptor activation/inhibition (HEK293 cells); type: cell-based; details: calcium flux; for agonist behaviour at D2 receptor: BP1.4979 at concentrations up to 1,000 nM; for EC50: HEK293 cells, human D2 short isoform
T1 construct: expressed in transfected cells; host or cells: HEK293 cells
T1 sequence (P14416 1-414 isoform P14416-2): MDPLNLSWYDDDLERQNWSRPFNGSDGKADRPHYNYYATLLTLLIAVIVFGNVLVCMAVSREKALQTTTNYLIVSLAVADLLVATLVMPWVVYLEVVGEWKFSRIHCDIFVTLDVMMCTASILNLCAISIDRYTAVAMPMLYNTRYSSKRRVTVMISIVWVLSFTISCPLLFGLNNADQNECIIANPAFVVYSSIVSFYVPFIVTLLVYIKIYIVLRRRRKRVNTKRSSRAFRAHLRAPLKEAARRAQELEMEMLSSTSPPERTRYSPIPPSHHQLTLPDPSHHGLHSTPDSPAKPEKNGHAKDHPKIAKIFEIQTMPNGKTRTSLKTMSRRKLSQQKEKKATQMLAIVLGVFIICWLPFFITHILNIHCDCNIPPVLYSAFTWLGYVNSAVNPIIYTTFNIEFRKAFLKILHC
Description: Calcium Fluxes Assay of D2-Receptor Activation/Inhibition
HEK293 cells expressing the human dopamine D2 short isoform were used to evaluate the potential agonist property of test compounds. Cells were loaded with Fluo-4-AM solution supplemented with sulfinpyrazone then plated in a 96-well plate and introduced in a FLEX station for fluorescence measurement following calcium transients.
Responses were calculated as the maximum minus the minimum fluorescence counts (Fmax−Fmin).

healthy smokers = test: Weight gain during smoking cessation, double blind clinical trial; type: in vivo, human; details: for weight increase: after twelve weeks; for weight increase compared to the weight before treatment: twelve further weeks after the end of treatment
RLS patients = test: Double-blind placebo-controlled clinical trial in restless legs syndrome; type: in vivo, human; details: 15 mg twice a day for two weeks
Description: Clinical Studies: Efficacy of BP1.4979 in Restless Legs Syndrome (Randomized, Double Blind Parallel Groups Sequential, Placebo Controlled, Clinical Trial)
The double-blind trial was conducted on 29 patients.

human D3 receptor = biological target: T2, human D3 receptor (Homo sapiens, UniProt P35462); test: GTPγ35S binding assay at D3 dopamine receptor (CHO cell membranes); type: biochemical; details: GTPγ[35S] assay, dopamine as full agonist reference
T2 construct: expressed in transfected cells
T2 sequence (P35462 whole entry): as the sequence (P35462 whole entry) above
Description: Thawed membranes from CHO cells stably expressing human D3 receptor were diluted at a final concentration of 5 μg/180 μL/well in a binding buffer containing HEPES 50 mM, MgCl2 3 mM, NaCl 140 mM, GDP 4 μM, pH=7.4 and distributed in 96 well polystyrene microplate. […] After transfer in a Millipore GF/C HTS® microplate, the filtration of the reactional mix followed by a three time 250 μl wash put an end to the reaction. The filter-bound radioactivity was measured in a liquid scintillation counter Microbeta with 70 μl of scintillation fluid.

[4] = system: 160 other receptors, channels or enzymes; test: Activity at 160 other receptors, channels or enzymes
human D2 receptor = human D2 receptor (Homo sapiens, UniProt P14416); test: Affinity at the human D2 receptor; type: binding
Chain of human D2 receptor (P14416 whole entry): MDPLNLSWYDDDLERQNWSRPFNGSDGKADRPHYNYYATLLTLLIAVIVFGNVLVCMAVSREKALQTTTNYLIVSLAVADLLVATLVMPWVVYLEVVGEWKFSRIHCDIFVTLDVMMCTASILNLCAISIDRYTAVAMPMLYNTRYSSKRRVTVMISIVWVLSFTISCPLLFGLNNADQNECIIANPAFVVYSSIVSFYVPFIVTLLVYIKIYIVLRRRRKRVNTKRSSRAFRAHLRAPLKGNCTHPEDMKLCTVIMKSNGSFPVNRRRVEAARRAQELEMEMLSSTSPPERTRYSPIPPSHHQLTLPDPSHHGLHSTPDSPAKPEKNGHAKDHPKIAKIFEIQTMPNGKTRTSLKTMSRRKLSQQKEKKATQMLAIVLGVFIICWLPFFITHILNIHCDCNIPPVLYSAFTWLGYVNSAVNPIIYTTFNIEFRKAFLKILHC

## CCCN(CCC)C1CCc2ccc(O)cc2C1 (stereo not shown) [7-OHDPAT, reference compound]
[1]
  inhibition of the monosynaptic reflex: total or nearly total inhibition

## COCCC(=O)N[C@H]1CC[C@H](CCN2CCN(c3cccc(C#N)c3)CC2)CC1 [BP1.4979, N-(4-{2-[4-(3-Cyanophenyl)piperazin-1-yl]ethyl}cyclohexyl)-3-methoxypropanamide]
[1]; 30 nM, stimulation 40 V, 50 μs of the dorsal root
  inhibition of the synaptic transmission: inhibited fully
[1]; another series of experiments, supraliminar stimulation of the dorsal root
  amplitude of the post-synaptic response on the ventral root: dose dependently inhibited
[1]; in the presence of BP1.4096
  effect on post-synaptic response in the presence of the dopamine D3 antagonist BP1.4096: prevented
[2]; CHO, read-out: intrinsic activity
  Emax: 30%
[2]; mitogenesis, CHO cells expressing human D3 receptor
  EC50: 0.7 nM
[2]; mitogenesis
  agonist behaviour (partial / full): partial agonist
[3]; antagonist mode
  blockade of the effect of dopamine or agonists: block completely
[3]
  agonist behaviour at D2 receptor: failed to activate the receptor
Healthy smokers; 3 mg once a day
  weight increase: 0.9 kg
  weight increase compared to the weight before treatment: 2.0 kg
Healthy smokers; 10 mg once a day
  weight increase: 0.5 kg
  weight increase compared to the weight before treatment: 1.4 kg
Healthy smokers; 15 mg once a day
  weight increase: 0.0 kg
  weight increase compared to the weight before treatment: 0.2 kg
RLS patients
  nausea and vomiting side-effects: no patient reported any symptom related to nausea nor did had vomiting episodes
Human D3 receptor
  partial activity: < 5%
[4]
  activity at 160 other receptors, channels or enzymes: inactive
Human D2 receptor
  behaviour at the human D2 receptor: pure antagonist

## NCCc1ccc(O)c(O)c1 [Dopamine, dopamine, reference compound]
[1]
  inhibition of the monosynaptic reflex: total or nearly total inhibition

## CCCN(CCC)CCc1cccc2c1CC(=O)N2 [Ropinirole]
[2]; mitogenesis
  agonist behaviour (partial / full): full agonists
[3]
  EC50: 20 nM
  agonist behaviour at D2 receptor: full agonists

## CCCN(CCc1cccs1)[C@H]1CCc2c(O)cccc2C1 [Rotigotine]
[3]
  EC50: 0.3 nM
  agonist behaviour at D2 receptor: full agonists
